Patent publication US7071212B2, “N-(4-carbamimidoyl-phenyl)-glycine derivatives” (Hoffmann-La Roche Inc., priority 1998, dated 2006)

Assays:
[1] = molecular target: T1, factor VIIa/tissue factor complex (Homo sapiens, UniProt P08709); assay: inhibition of the amidolytic activity of factor VIIa/tissue factor complex (chromogenic peptide substrate); format: biochemical; conditions: 26 nM tissue factor, 9 nM soluble factor VIIa, 8 mM calcium chloride, substrate Chromozym-tPA, pH 7.5, room temperature
T1 construct: 9 nM of soluble factor VIIa
T1 sequence (P08709 213-466 limits assumed): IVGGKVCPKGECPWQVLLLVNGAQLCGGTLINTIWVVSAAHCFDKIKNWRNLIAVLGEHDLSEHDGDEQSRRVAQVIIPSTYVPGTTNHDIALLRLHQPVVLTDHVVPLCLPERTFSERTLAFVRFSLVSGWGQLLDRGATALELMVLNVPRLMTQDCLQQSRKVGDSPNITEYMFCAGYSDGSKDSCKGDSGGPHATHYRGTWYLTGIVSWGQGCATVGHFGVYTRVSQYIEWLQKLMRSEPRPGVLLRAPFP
T1 sequence (P08709 61-212 partner limits assumed): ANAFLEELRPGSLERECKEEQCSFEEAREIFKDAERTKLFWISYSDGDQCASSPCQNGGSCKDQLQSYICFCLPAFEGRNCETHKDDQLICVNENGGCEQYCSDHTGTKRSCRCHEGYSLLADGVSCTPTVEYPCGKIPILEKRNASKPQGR
T1 sequence (P13726 33-295 partner): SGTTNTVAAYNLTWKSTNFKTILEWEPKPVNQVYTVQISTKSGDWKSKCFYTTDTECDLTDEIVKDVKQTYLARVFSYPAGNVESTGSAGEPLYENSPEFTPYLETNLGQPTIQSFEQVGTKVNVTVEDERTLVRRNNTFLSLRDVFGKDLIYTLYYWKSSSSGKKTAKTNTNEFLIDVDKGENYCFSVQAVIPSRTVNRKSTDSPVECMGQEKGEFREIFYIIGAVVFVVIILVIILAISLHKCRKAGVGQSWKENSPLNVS
Procedure: The measurements were carried out on microtitre plates at room temperature. To this end, 100 μl of a solution of 26 nM of tissue factor, 9 nM of soluble factor VIIa and 8 mM of calcium chloride were added to 25 μl of a solution of the inhibitor in a buffer [pH 7.5, 100 mM, comprising 0.14M NaCl, 0.1M N-(2-hydroxyethyl)piperazine-N′-(2-ethanesulphonic acid) (HEPES), 0.5 mg/l of fatty-acid-free BSA (bovine serum albumin) and 0.05% NaN3] in each well of the plate. After an incubation time of 15 minutes the reaction was started by the addition of 50 μl of chromogenic substrate Chromozym-tPA (3.5 mM, MeSO2-D-Phe-Gly-Arg-paranitroanilide) and the hydrolysis of the substrate was followed spectrophotometrically on a kinetic microtitre plate reader over 10 minutes. Using the plot of the inhibition curves, the Ki values were determined according to the method described in Biochem. J. 55, 1953, 170–171. The results will be evident from the following Table (Ki in μM/l): […]

Row | Ki [1] [nM] | melting point [°C] | SMILES
1 |  | 240 | CCCc1cc(C)cc(C(Nc2ccc(C(=N)N)cc2)C(=O)O)c1OCCO (racemic) [Example 56.5, (RS)-(4-carbamimidoyl-phenylamino)-[2-(2-hydroxy-ethoxy)-5-methyl-3-propyl-phenyl]-acetic acid]
2 |  | 228 | C=CCc1cc(C)cc(C(Nc2ccc(C(=N)N)cc2)C(=O)O)c1OCCO (racemic) [Example 57.4, (RS)-[3-allyl-2-(2-hydroxy-ethoxy)-5-methyl-phenyl]-(4-carbamimidoyl-phenylamino)-acetic acid]
3 |  | 173 | [H]/N=C(\NO)c1ccc(NC(C(=O)OC)c2cc(OC)c(OC)cc2OCc2cccc(C(=O)OC)c2)cc1 (racemic) [Example 52.3, methyl (Z)-(RS)-3-(2-{[4-(N-hydroxycarbamimidoyl)-phenylamino]-methoxycarbonyl-methyl}-4,5-dimethoxy-phenoxymethyl)-benzoate]
4 |  | 230 | CCCc1cc(C)c(OCCO)c(C(Nc2ccc(C(=N)N)cc2)C(=O)O)c1 (racemic) [Example 58.5, (RS)-(4-carbamimidoyl-phenylamino)-[2-(2-hydroxy-ethoxy)-3-methyl-5-propyl-phenyl]-acetic acid]

The next lines start with the compound.

Row | SMILES | Ki [1] [nM] | melting point [°C]
5 | COc1cc(OC)c(OCC(=O)O)c(C(Nc2ccc(C(=N)N)cc2)C(=O)O)c1 (racemic) [Example 15, (RS)-(4-carbamimidoyl-phenylamino)-(2-carboxymethoxy-3,5-dimethoxy-phenyl)-acetic acid] | 84 | 
6 | CCOc1ccc(OCC(N)=O)c(C(Nc2ccc(C(=N)N)cc2)C(=O)O)c1 (racemic) [Example 48.5, (RS)-(4-carbamimidoyl-phenylamino)-(2-carbamoylmethoxy-5-ethoxy-phenyl)-acetic acid] |  | 266
7 | CCOc1ccc(OCCOC)c(C(Nc2ccc(C(=N)N)cc2)C(=O)O)c1 (racemic) [Example 46.4, (RS)-(4-carbamimidoyl-phenylamino)-[5-ethoxy-2-(2-methoxy-ethoxy)-phenyl]-acetic acid] |  | 275
8 | COc1cc(OCC(=O)O)c(C(Nc2ccc(C(=N)N)cc2)C(=O)O)cc1OC (racemic) [Example 17, (RS)-(4-carbamimidoyl-phenylamino)-(2-carboxymethoxy-4,5-dimethoxy-phenyl)-acetic acid] | 38.5 | 
9 | COc1ccc(OC)c(C(Nc2ccc(C(=N)N)cc2)C(=O)O)c1 (racemic) [Example 41.4, (RS)-(4-carbamimidoyl-phenylamino)-(2,5-dimethoxy-phenyl)-acetic acid] |  | 310
10 | N=C(N)c1ccc(NC(C(=O)O)c2cccc(OCc3ccccc3)c2)cc1 (racemic) [Example 39.4, (RS)-(3-benzyloxy-phenyl)-(4-carbamimidoyl-phenylamino)-acetic acid] |  | 306
11 | CCOc1ccc(OCCCCC(=O)O)c(C(Nc2ccc(C(=N)N)cc2)C(=O)O)c1 (racemic) [Example 45.4, (RS)-5-{2-[(4-carbamimidoyl-phenylamino)-carboxy-methyl]-4-ethoxy-phenoxy}-pentanoic acid] |  | 260
12 | COc1ccc(OCC(=O)O)c(C(Nc2ccc(C(=N)N)cc2)C(=O)O)c1 (racemic) [Example 43.4, (RS)-(4-carbamimidoyl-phenylamino)-(2-carboxymethoxy-5-methoxy-phenyl)-acetic acid] |  | 213
13 | N=C(N)c1ccc(NC(C(=O)O)c2ccccc2OCC(=O)O)cc1 (racemic) [Example 40.3, (RS)-(4-carbamimidoyl-phenylamino)-(2-carboxymethoxy-phenyl)-acetic acid] |  | 223
